According to ChEMBL document CHEMBL3885881, “DrugMatrix”:

Species: Rattus norvegicus
Test: DrugMatrix - Regimen: Daily Repeat
Format: toxicity, organism-based, Sprague-Dawley
Design: regimen Daily Repeat, gender Male, age 6-8 weeks
Details: in vivo, sc, route subcutaneous, […]; for ABSOLUTE BASOPHIL / ABSOLUTE EOSINOPHIL / ABSOLUTE LYMPHOCYTE / ABSOLUTE MONOCYTE / ABSOLUTE SEGMENTED NEUTROPHIL / BASOPHIL / EOSINOPHIL / ERYTHROCYTE COUNT / HEMATOCRIT / HEMOGLOBIN / LEUKOCYTE COUNT / LYMPHOCYTE / MEAN CORPUSCULAR HEMOGLOBIN / MEAN CORPUSCULAR HEMOGLOBIN CONCENTRATION / MEAN CORPUSCULAR VOLUME / MONOCYTE / NEUTROPHIL / NUCLEATED RED BLOOD CELLS / PLATELET COUNT: tissue Blood; for ALANINE AMINOTRANSFERASE / ALBUMIN / ALKALINE PHOSPHATASE / ASPARTATE AMINOTRANSFERASE / BLOOD UREA NITROGEN / CARBON DIOXIDE / CHLORIDE / CHOLESTEROL / CREATINE PHOSPHOKINASE / CREATININE / GLUCOSE / LACTATE DEHYDROGENASE / LIPASE / PHOSPHORUS / POTASSIUM / SODIUM / TOTAL BILIRUBIN / TOTAL PROTEIN / URIC ACID: tissue Plasma
[1] = 14 mg/kg, 120 h, dose level Low, time 5 day
[2] = 140 mg/kg, 72 h, dose level High, time 3 day
[3] = 140 mg/kg, 120 h, dose level High, time 5 day

CCN(CC)CCOCCC1=CCC2CC1C2(C)C (centres undefined) [MYRTECAINE]
ABSOLUTE BASOPHIL [1]: 0 CELLS/uL | ABSOLUTE EOSINOPHIL [1]: 435.67 CELLS/uL | ABSOLUTE LYMPHOCYTE [1]: 16182.67 CELLS/uL | ABSOLUTE MONOCYTE [1]: 0 CELLS/uL | ABSOLUTE SEGMENTED NEUTROPHIL [1]: 2215 CELLS/uL | BASOPHIL [1]: 0% | EOSINOPHIL [1]: 2.33% | ERYTHROCYTE COUNT [1]: 6.14 x10E6/uL | HEMATOCRIT [1]: 39.17% | HEMOGLOBIN [1]: 15.53 G/DL | LEUKOCYTE COUNT [1]: 18.83 x10E3/uL | LYMPHOCYTE [1]: 86% | MEAN CORPUSCULAR HEMOGLOBIN [1]: 25.33 pg | MEAN CORPUSCULAR HEMOGLOBIN CONCENTRATION [1]: 39.7 G/DL | MEAN CORPUSCULAR VOLUME [1]: 63.8 fL | MONOCYTE [1]: 0% | NEUTROPHIL [1]: 11.67% | NUCLEATED RED BLOOD CELLS [1]: 0 /100WBC | PLATELET COUNT [1]: 1530.33 x10E3/uL | ALANINE AMINOTRANSFERASE [1]: 58 u/L | ALBUMIN [1]: 4.53 G/DL | ALKALINE PHOSPHATASE [1]: 470.67 u/L | ASPARTATE AMINOTRANSFERASE [1]: 83.67 u/L | BLOOD UREA NITROGEN [1]: 17.67 mg/dL | CARBON DIOXIDE [1]: 31.67 mmol/L | CHLORIDE [1]: 104 MEQ/L | CHOLESTEROL [1]: 76.67 mg/dL | CREATINE PHOSPHOKINASE [1]: 162.33 u/L | CREATININE [1]: 0.26 mg/dL | GLUCOSE [1]: 157.67 mg/dL | LACTATE DEHYDROGENASE [1]: 142 u/L | LIPASE [1]: 9.67 u/L | PHOSPHORUS [1]: 14.37 mg/dL | POTASSIUM [1]: 7.28 MEQ/L | SODIUM [1]: 151.27 MEQ/L | TOTAL BILIRUBIN [1]: 0.3 mg/dL | TOTAL PROTEIN [1]: 6.67 G/DL | URIC ACID [1]: 2.23 mg/dL | ABSOLUTE BASOPHIL [2]: 0 CELLS/uL | ABSOLUTE EOSINOPHIL [2]: 42 CELLS/uL | ABSOLUTE LYMPHOCYTE [2]: 11279.33 CELLS/uL | ABSOLUTE MONOCYTE [2]: 191.33 CELLS/uL | ABSOLUTE SEGMENTED NEUTROPHIL [2]: 620.67 CELLS/uL | BASOPHIL [2]: 0% | EOSINOPHIL [2]: 0.33% | ERYTHROCYTE COUNT [2]: 5.34 x10E6/uL | HEMATOCRIT [2]: 33.37% | HEMOGLOBIN [2]: 13.6 G/DL | LEUKOCYTE COUNT [2]: 12.13 x10E3/uL | LYMPHOCYTE [2]: 93% | MEAN CORPUSCULAR HEMOGLOBIN [2]: 25.53 pg | MEAN CORPUSCULAR HEMOGLOBIN CONCENTRATION [2]: 40.77 G/DL | MEAN CORPUSCULAR VOLUME [2]: 62.57 fL | MONOCYTE [2]: 1.67% | NEUTROPHIL [2]: 5% | NUCLEATED RED BLOOD CELLS [2]: 0 /100WBC | PLATELET COUNT [2]: 1370.67 x10E3/uL | ALANINE AMINOTRANSFERASE [2]: 61.67 u/L | ALBUMIN [2]: 3.67 G/DL | ALKALINE PHOSPHATASE [2]: 346 u/L | ASPARTATE AMINOTRANSFERASE [2]: 92 u/L | BLOOD UREA NITROGEN [2]: 13.33 mg/dL | CARBON DIOXIDE [2]: 30.33 mmol/L | CHLORIDE [2]: 100.33 MEQ/L | CHOLESTEROL [2]: 67 mg/dL | CREATINE PHOSPHOKINASE [2]: 447 u/L | CREATININE [2]: 0.17 mg/dL | GLUCOSE [2]: 155.33 mg/dL | LACTATE DEHYDROGENASE [2]: 247.33 u/L | LIPASE [2]: 8 u/L | PHOSPHORUS [2]: 13.73 mg/dL | POTASSIUM [2]: 7.09 MEQ/L | SODIUM [2]: 144.03 MEQ/L | TOTAL BILIRUBIN [2]: 0.2 mg/dL | TOTAL PROTEIN [2]: 5.6 G/DL | URIC ACID [2]: 2.03 mg/dL | ABSOLUTE BASOPHIL [3]: 0 CELLS/uL | ABSOLUTE EOSINOPHIL [3]: 174.67 CELLS/uL | ABSOLUTE LYMPHOCYTE [3]: 14614 CELLS/uL | ABSOLUTE MONOCYTE [3]: 386 CELLS/uL | ABSOLUTE SEGMENTED NEUTROPHIL [3]: 2992 CELLS/uL | BASOPHIL [3]: 0% | EOSINOPHIL [3]: 1% | ERYTHROCYTE COUNT [3]: 6.17 x10E6/uL | HEMATOCRIT [3]: 37.83% | HEMOGLOBIN [3]: 14.87 G/DL | LEUKOCYTE COUNT [3]: 18.17 x10E3/uL | LYMPHOCYTE [3]: 81.33% | MEAN CORPUSCULAR HEMOGLOBIN [3]: 24.07 pg | MEAN CORPUSCULAR HEMOGLOBIN CONCENTRATION [3]: 39.33 G/DL | MEAN CORPUSCULAR VOLUME [3]: 61.3 fL | MONOCYTE [3]: 2.33% | NEUTROPHIL [3]: 15.33% | NUCLEATED RED BLOOD CELLS [3]: 0 /100WBC | PLATELET COUNT [3]: 1631 x10E3/uL | ALANINE AMINOTRANSFERASE [3]: 84.67 u/L | ALBUMIN [3]: 3.97 G/DL | ALKALINE PHOSPHATASE [3]: 328 u/L | ASPARTATE AMINOTRANSFERASE [3]: 111.67 u/L | BLOOD UREA NITROGEN [3]: 16 mg/dL | CARBON DIOXIDE [3]: 26.33 mmol/L | CHLORIDE [3]: 104 MEQ/L | CHOLESTEROL [3]: 74.67 mg/dL | CREATINE PHOSPHOKINASE [3]: 356 u/L | CREATININE [3]: 0.2 mg/dL | GLUCOSE [3]: 164.67 mg/dL | LACTATE DEHYDROGENASE [3]: 370 u/L | LIPASE [3]: 12 u/L | PHOSPHORUS [3]: 13.97 mg/dL | POTASSIUM [3]: 6.94 MEQ/L | SODIUM [3]: 146.77 MEQ/L | TOTAL BILIRUBIN [3]: 0.17 mg/dL | TOTAL PROTEIN [3]: 5.97 G/DL | URIC ACID [3]: 2.6 mg/dL
